Consider ten compounds from ChEMBL document CHEMBL1201862, “PubChem BioAssay data set” (2004).

SMILES strings stand for the structures.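 Each compound was tested at five concentrations against cells in 96-well plates for 48 hours. GI50 marks 50% less growth.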 Calls of active or inactive are those of the source. No stated cut-off is given here; in the data, active = GI50 up to about 1.1 µM and inactive = higher.

Test systems include PC-3; 786-0; SK-OV-3; COLO 205; LOX IMVI; Malme-3M; HOP-62; EKVX; K562; SNB-19; HCC 2998; SW-620; A498; IGROV-1; SK-MEL-2; T47D; HOP-92; Hs-578T; SK-MEL-28; SN12C.
What all share (assay): DTP human tumour cell line panel, 48 h

A word on the GI50: it is the concentration that inhibits growth by half.

As for `CC1CC2=C(C1)C(C1(C)C(=O)CC3C(C1=O)C3(C)C)C(C)C2=O` (stereo not given), the GI50 with PC-3, with 786-0, in the assay on SK-OV-3, with COLO 205, with LOX IMVI and in the assay on Malme-3M was > 100 µM (inactive) in each case. For the same compound, the GI50 with HOP-62, in the assay with EKVX, in the assay on K562, in the assay on SNB-19, in the assay with HCC 2998 and in the assay on SW-620 was > 100 µM (inactive) throughout. Further, the GI50 in the assay with A498, in the assay on IGROV-1, in the assay with SK-MEL-2, with T47D, in the assay on HOP-92 and with Hs-578T was > 100 µM (inactive) each time. Moreover, the GI50 in the assay on SK-MEL-28 and with SN12C was > 100 µM (inactive) each time.
For the compound `COc1cc(OC)c(/C=N/N=C(\N)NO)c(OC)c1`, the GI50 in the assay with PC-3, in the assay with 786-0, with SK-OV-3, with COLO 205, in the assay on LOX IMVI and in the assay with Malme-3M was > 100 µM (inactive) throughout. For the same compound, the GI50 is 55.8 µM (inactive) in the assay on HOP-62; 35.4 µM (inactive) with EKVX; 41.6 µM (inactive) in the assay on K562; > 100 µM (inactive) with SNB-19; > 100 µM (inactive) in the assay on HCC 2998; > 100 µM (inactive) with SW-620. For the same compound, the GI50 was > 100 µM (inactive) in the assay on A498; 90.6 µM (inactive) in the assay on IGROV-1; > 100 µM (inactive) with SK-MEL-2; > 100 µM (inactive) with T47D; > 100 µM (inactive) in the assay with HOP-92; > 100 µM (inactive) in the assay with Hs-578T. Also, the GI50 with SK-MEL-28 and with SN12C was > 100 µM (inactive) each time.
With `C/C(=C1/N=C(c2ccccc2)OC1=O)c1ccccc1`, the GI50 in the assay with PC-3 is > 100 µM (inactive); in the assay with 786-0 it was > 100 µM (inactive); in the assay on SK-OV-3, > 100 µM (inactive); in the assay on COLO 205, > 100 µM (inactive); with LOX IMVI, 33.5 µM (inactive); in the assay with Malme-3M it was 53.2 µM (inactive). In addition, the GI50 was > 100 µM (inactive) in the assay with HOP-62; > 100 µM (inactive) in the assay with EKVX; > 100 µM (inactive) with K562; > 100 µM (inactive) in the assay with SNB-19; > 100 µM (inactive) with HCC 2998; 57.5 µM (inactive) in the assay with SW-620. For the same compound, the GI50 was > 100 µM (inactive) with A498; 68.2 µM (inactive) in the assay with IGROV-1; > 100 µM (inactive) in the assay on SK-MEL-2; > 100 µM (inactive) in the assay with T47D; > 100 µM (inactive) in the assay with HOP-92; 46.3 µM (inactive) with Hs-578T. Besides, the GI50 with SK-MEL-28 and in the assay on SN12C was > 100 µM (inactive) each time.
Turning to `CC1=C(C(=O)Nc2ccccc2)C2(CCCCC2)C(C#N)=C(SCC(=O)Nc2ccc(Br)cc2)N1`, the GI50 with PC-3 is 2.88 µM (inactive); with 786-0, 4.1 µM (inactive); in the assay with SK-OV-3, 8.79 µM (inactive); in the assay with COLO 205 it was 2.11 µM (inactive); in the assay with LOX IMVI it was 3.43 µM (inactive); with Malme-3M it was 1.82 µM (inactive). Besides, the GI50 in the assay with HOP-62 is 10.1 µM (inactive); in the assay on EKVX it was 2.15 µM (inactive); with K562, 3.34 µM (inactive); with SNB-19 it was 6.49 µM (inactive); with HCC 2998, 2.54 µM (inactive); in the assay on SW-620 it was 5.43 µM (inactive). The GI50 in the assay on A498 was 4.56 µM (inactive); in the assay on IGROV-1 it was 3.34 µM (inactive); with SK-MEL-2, 2.54 µM (inactive); in the assay with T47D, 5.19 µM (inactive); in the assay with HOP-92 it was 3.11 µM (inactive); in the assay on Hs-578T it was 3.57 µM (inactive). For the same compound, the values for the GI50 in the assay on SK-MEL-28 and with SN12C were 5.73 µM (inactive) and 4.23 µM (inactive), respectively.
For `CC(=O)OC(C)c1cc2c(s1)C(=O)c1sccc1C2=O` (stereo not given), the GI50 was 2.19 µM (inactive) in the assay on PC-3; 4.45 µM (inactive) with 786-0; 2.95 µM (inactive) in the assay on SK-OV-3; 1.89 µM (inactive) with COLO 205; 0.446 µM (active) in the assay on LOX IMVI; 0.21 µM (active) in the assay on Malme-3M. The GI50 in the assay with HOP-62 was 1.03 µM (active); with EKVX, 2.03 µM (inactive); in the assay on K562 it was 2.69 µM (inactive); in the assay with SNB-19, 1.29 µM (inactive); with HCC 2998, 1.99 µM (inactive); with SW-620, 0.714 µM (active). The GI50 with A498 was 2.33 µM (inactive); with IGROV-1, 2.02 µM (inactive); in the assay with SK-MEL-2, 0.504 µM (active); in the assay with T47D it was 2.58 µM (inactive); in the assay on HOP-92, 3.51 µM (inactive); in the assay with Hs-578T it was 0.807 µM (active). Besides, the GI50 in the assay on SK-MEL-28 is 0.916 µM (active); with SN12C, 0.542 µM (active).
Take `COC(=O)C1=C(C(=O)OC)SC2(S1)C(C(=O)OC)=C(C(=O)OC)Sc1c2ss/c1=N\c1ccc(Cl)cc1`: the GI50 is 0.44 µM (active) with PC-3; 0.516 µM (active) in the assay on 786-0; 2 µM (inactive) in the assay with SK-OV-3; 0.774 µM (active) with COLO 205; 0.339 µM (active) in the assay with LOX IMVI; 1.83 µM (inactive) with Malme-3M. Moreover, the GI50 in the assay on HOP-62 was 1.67 µM (inactive); in the assay with EKVX, 1.45 µM (inactive); with K562, 1.31 µM (inactive); with SNB-19, 1.53 µM (inactive); in the assay on HCC 2998 it was 0.325 µM (active); in the assay with SW-620, 0.425 µM (active). The GI50 was 1.77 µM (inactive) with A498; 1.14 µM (inactive) in the assay on IGROV-1; 0.325 µM (active) with SK-MEL-2; 1.06 µM (active) in the assay with T47D; 0.638 µM (active) in the assay on HOP-92; 2.84 µM (inactive) in the assay on Hs-578T. In addition, the GI50 in the assay with SK-MEL-28 is 1.7 µM (inactive); in the assay with SN12C, 0.552 µM (active).
Take `Cc1c(-c2ccc(-c3ccccc3F)cc2)nc2ccc(F)cc2c1C(=O)O` [BREQUINAR SODIUM]: the GI50 in the assay with PC-3 is 0.5 µM (active); in the assay with 786-0 it was 0.195 µM (active); with SK-OV-3, 16.1 µM (inactive); with COLO 205, 0.519 µM (active); with LOX IMVI it was 0.0931 µM (active); in the assay with Malme-3M, 15.4 µM (inactive). Besides, the GI50 with HOP-62 was 1.1 µM (active); with EKVX, 16 µM (inactive); in the assay on K562, 0.143 µM (active); with SNB-19, 1.25 µM (inactive); in the assay with HCC 2998, 9.62 µM (inactive); with SW-620 it was 0.384 µM (active). Moreover, the GI50 was 49.8 µM (inactive) in the assay on A498; 0.303 µM (active) in the assay on IGROV-1; 61.8 µM (inactive) in the assay with SK-MEL-2; 16.9 µM (inactive) in the assay with T47D; 35.2 µM (inactive) with HOP-92; 6.93 µM (inactive) with Hs-578T. Also, the results for the GI50 with SK-MEL-28 and in the assay with SN12C were 9.93 µM (inactive) and 1.79 µM (inactive), respectively.
Take `CC1=C(Br)C(=O)c2c(O)ccc(O)c2C1=O`: the GI50 in the assay with PC-3 is 1.41 µM (inactive); in the assay with 786-0, 0.19 µM (active); in the assay with SK-OV-3 it was 1.85 µM (inactive); with COLO 205, 0.187 µM (active); with LOX IMVI, 0.55 µM (active); in the assay with Malme-3M it was 0.295 µM (active). Moreover, the GI50 with HOP-62 was 0.849 µM (active); in the assay with EKVX it was 2.37 µM (inactive); with K562, 0.133 µM (active); in the assay on SNB-19, 1.72 µM (inactive); in the assay with HCC 2998, 1.75 µM (inactive); in the assay on SW-620, 0.163 µM (active). The GI50 is 1.7 µM (inactive) in the assay on A498; 1.59 µM (inactive) with IGROV-1; 5.83 µM (inactive) in the assay on SK-MEL-2; 0.412 µM (active) in the assay on T47D; 0.627 µM (active) in the assay on HOP-92; 2.81 µM (inactive) with Hs-578T. Also, the GI50 in the assay with SK-MEL-28 is 0.875 µM (active); in the assay with SN12C, 1.38 µM (inactive).
Consider `CC1CN=C(N(C)C(=O)Nc2ccc(Cl)cc2)S1` (stereo not given), for which the GI50 in the assay with PC-3 was 15.7 µM (inactive); in the assay with 786-0 it was 19.5 µM (inactive); with SK-OV-3 it was 46 µM (inactive); with COLO 205, 13.4 µM (inactive); in the assay on LOX IMVI it was 20.2 µM (inactive); in the assay on Malme-3M, 53.1 µM (inactive). Moreover, the GI50 is 48.2 µM (inactive) in the assay on HOP-62; 21.4 µM (inactive) in the assay on EKVX; 8.61 µM (inactive) in the assay on K562; 49 µM (inactive) in the assay with SNB-19; 4.29 µM (inactive) in the assay with HCC 2998; 20.4 µM (inactive) in the assay with SW-620. Also, the GI50 with A498 is 40.1 µM (inactive); with IGROV-1, 4.56 µM (inactive); with SK-MEL-2, 15.4 µM (inactive); with T47D, 4.19 µM (inactive); in the assay on HOP-92, 29.9 µM (inactive); with Hs-578T, 25.5 µM (inactive). The GI50 with SK-MEL-28 is 16.5 µM (inactive); in the assay with SN12C it was 15.2 µM (inactive).
In the case of `O=C1CC2(CCNCC2)C(=O)N1N1CCCCC1`, the GI50 with PC-3, with 786-0, in the assay on SK-OV-3, with COLO 205, in the assay with LOX IMVI and in the assay with Malme-3M was > 100 µM (inactive) each time. Further, the GI50 in the assay on HOP-62, with EKVX, in the assay with K562, in the assay with SNB-19, with HCC 2998 and in the assay on SW-620 was > 100 µM (inactive) each time. Besides, the GI50 in the assay with A498, in the assay on IGROV-1, in the assay with SK-MEL-2, with T47D, with HOP-92 and with Hs-578T was > 100 µM (inactive) each time. Also, the GI50 with SK-MEL-28 and in the assay on SN12C was > 100 µM (inactive) in each case.
